Earlier results in patent US20240344040A1, “PROKARYOTIC AND EUKARYOTIC CELLS WITH BIOSYNTHESIZED SULFOTYROSINE FOR GENETIC INCORPORATION” (William Marsh Rice University, priority 2023, published 2024).

Details: cells incubated with 1 mM pThr

**Q.** For `C[C@@H](OP(=O)(O)O)[C@H](N)C(=O)O` [phosphothreonine], which intracellular detection is on record?
**A.** cannot be detected intracellularly
